Read-outs that look alike come from different tables or passages of the source.
How the values were obtained:
[1] = target: T1, CDK1/Cyclin B1, GST-tag (Homo sapiens, UniProt P06493); assay: Biochemical CDK inhibition assay (Caliper mobility shift), CDK1/Cyclin B1
T1 construct: GST; purchased BPS 40454
Procedure: (§1) Inhibitory effects of the compounds of the disclosure were measured in biochemical assays that measure the enzymatic phosphorylation activity of CDK enzyme in complex of Cyclin proteins phosphorylates 7.5 micromolar fluorescently labelled peptide substrate, 5-FAM-QSPKKG-CONH2, (FL-Peptide 18, Perkin Elmer, 760362) in the presence of adenosine-5′-triphosphate (ATP) and varying concentrations of the test compound in 100 mM 2-[4-(2-hydroxyethyl)piperazin-1-yl] ethanesulfonic acid (HEPES), pH 7.5, 10 mM MgCl2, 0.015% Brij-35, 1 mM dithiothreitol (DTT), 1.0% dimehylsulfoxide (DMSO). […] Reactions proceeded until between 10% to 20% total peptides were phosphorylated at room temperature (25° C.) and were terminated with 35 mM 2,2′,2″,2′″-(ethane-1,2-diyldinitrilo)tetraacetic acid (EDTA). Product was detected using the Caliper mobility shift detection method where the phosphorylated peptide (product) and substrate were electrophoretically separated and measured. Percent activity was plotted against log concentration of compound and points to generate an apparent IC50. The following CDK enzymes in complex with different cyclin proteins were used in these assays: • CDK1/Cyclin B1, GST-tag (BPS, 40454), 1.5 nM used in the assay • CDK2/Cyclin E (Eurofins, 14-475), 1.25 nM used in the assays
(§2) For inhibitory activity against CDK2/Cyclin E mutant, the following designations are used: ≤10 nM=A; >10-20 nM=B; >20-30 nM=C; >30-100 nM=D and >100=E. For inhibition CDK1/Cyclin B1, GST-tag: ≥500 nM=A; <100-500 nM=B; <100 nM=C.

[2] = target: T2, CDK2/Cyclin E (Homo sapiens, UniProt P24941); assay: Biochemical CDK inhibition assay (Caliper mobility shift), CDK2/Cyclin E; details: read-out: CDK2/cyclin E1 IC50
T2 construct: purchased Eurofins 14-475
Procedure: as §1, §2

T1 sequence (P06493 whole entry): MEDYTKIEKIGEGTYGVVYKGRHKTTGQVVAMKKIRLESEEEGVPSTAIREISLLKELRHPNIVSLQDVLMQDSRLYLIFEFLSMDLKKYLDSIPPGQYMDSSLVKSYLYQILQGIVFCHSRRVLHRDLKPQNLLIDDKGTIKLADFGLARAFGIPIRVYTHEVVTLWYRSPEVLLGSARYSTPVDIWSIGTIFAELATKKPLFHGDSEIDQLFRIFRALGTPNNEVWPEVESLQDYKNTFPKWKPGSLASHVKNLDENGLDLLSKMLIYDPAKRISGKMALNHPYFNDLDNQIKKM
T1 sequence (P14635 whole entry partner): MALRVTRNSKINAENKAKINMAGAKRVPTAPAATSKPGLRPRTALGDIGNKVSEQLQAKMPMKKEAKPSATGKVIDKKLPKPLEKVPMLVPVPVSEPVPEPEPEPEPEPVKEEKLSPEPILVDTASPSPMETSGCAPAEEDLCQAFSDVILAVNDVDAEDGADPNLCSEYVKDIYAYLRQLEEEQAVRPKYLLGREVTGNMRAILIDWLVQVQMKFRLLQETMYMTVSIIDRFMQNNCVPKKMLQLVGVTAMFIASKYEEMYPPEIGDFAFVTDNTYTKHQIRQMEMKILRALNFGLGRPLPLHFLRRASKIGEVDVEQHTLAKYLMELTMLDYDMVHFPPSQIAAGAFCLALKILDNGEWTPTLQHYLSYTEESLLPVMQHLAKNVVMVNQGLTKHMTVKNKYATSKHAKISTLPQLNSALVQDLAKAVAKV

| Molecule | IC50 ([1]; apparent IC50, 1.5 nM enzyme, 1.0 mM ATP or ATP Km, 7.5 micromolar FL-Peptide 18, 25° C.) | IC50 ([2]; apparent IC50, 1.25 nM enzyme, 1.0 mM ATP or ATP Km, 7.5 micromolar FL-Peptide 18, 25° C.) | IC50 [1] | IC50 [2] |
| --- | --- | --- | --- | --- |
| 3-fluoro-4-((4-(1-(2-hydroxyethyl)-1H-pyrazol-4-yl)-5-(trifluoromethyl)pyrimidin-2-yl)amino)benzenesulfonamide or 3-fluoro-4-((2-(1-(2-hydroxyethyl)-1H-pyrazol-4-yl)-5-(trifluoromethyl)pyrimidin-4-yl)amino)benzenesulfonamide [Example 33] | ≥ 500 nM | 10 to 20 nM |  |  |
| C[C@H](n1cc(-c2nc(Nc3ccc(S(N)(=O)=O)cc3F)ncc2C(F)(F)F)cn1)C(C)(C)O (single isomer, unassigned) [Example 6, (S)-3-fluoro-4-((4-(1-(3-hydroxy-3-methylbutan-2-yl)-1H-pyrazol-4-yl)-5-(trifluoromethyl)pyrimidin-2-yl)amino)benzenesulfonamide or (R)-3-fluoro-4-((4-(1-(3-hydroxy-3-methylbutan-2-yl)-1H-pyrazol-4-yl)-5-(trifluoromethyl)pyrimidin-2-yl)amino)benzenesulfonamide] |  |  | < 100 nM | ≤ 10 nM |
| C[C@@H](n1cc(-c2nc(Nc3ccc(S(N)(=O)=O)cc3F)ncc2C(F)(F)F)cn1)C(C)(C)O (single isomer, unassigned) [Example 7, (R)-3-fluoro-4-((4-(1-(3-hydroxy-3-methylbutan-2-yl)-1H-pyrazol-4-yl)-5-(trifluoromethyl)pyrimidin-2-yl)amino)benzenesulfonamide or (S)-3-fluoro-4-((4-(1-(3-hydroxy-3-methylbutan-2-yl)-1H-pyrazol-4-yl)-5-(trifluoromethyl)pyrimidin-2-yl)amino)benzenesulfonamide] |  |  | 100 to 500 nM | ≤ 10 nM |
| C[C@H](O)[C@H](C)n1cc(-c2nc(Nc3ccc(S(N)(=O)=O)cc3F)ncc2C(F)(F)F)cn1 (single isomer, unassigned) [Example 9] |  |  | 100 to 500 nM | ≤ 10 nM |
| C[C@@H](O)[C@H](C)n1cc(-c2nc(Nc3ccc(S(N)(=O)=O)cc3F)ncc2C(F)(F)F)cn1 (single isomer, unassigned) [Example 13] |  |  | 100 to 500 nM | ≤ 10 nM |
| C[C@H](O)[C@@H](C)n1cc(-c2nc(Nc3ccc(S(N)(=O)=O)cc3F)ncc2C(F)(F)F)cn1 (single isomer, unassigned) [Example 15] |  |  | 100 to 500 nM | ≤ 10 nM |
| C[C@H]([C@@H](C)O)n1cc(-c2nc(Nc3ccc(S(N)(=O)=O)cc3F)ncc2C(F)(F)F)cn1 (single isomer, unassigned) [Example 25] |  |  | 100 to 500 nM | ≤ 10 nM |
| Cc1cc(S(N)(=O)=O)ccc1Nc1ncc(C(F)(F)F)c(-c2cnn(CC(C)(C)O)c2)n1 [Example 2, 4-((4-(1-(2-hydroxy-2-methylpropyl)-1H-pyrazol-4-yl)-5-(trifluoromethyl)pyrimidin-2-yl)amino)-3-methylbenzenesulfonamide] |  |  | 100 to 500 nM | ≤ 10 nM |
| CC(C)(O)Cn1cc(-c2nc(Nc3ccc(S(N)(=O)=O)cc3)ncc2Cl)cn1 [Example 3, 4-((5-chloro-4-(1-(2-hydroxy-2-methylpropyl)-1H-pyrazol-4-yl)pyrimidin-2-yl)amino)benzenesulfonamide] |  |  | < 100 nM | ≤ 10 nM |
| CC(C)(O)Cn1cc(-c2nc(Nc3ccc(S(N)(=O)=O)cc3)ncc2C(F)F)cn1 [Example 4, 4-((5-(difluoromethyl)-4-(1-(2-hydroxy-2-methylpropyl)-1H-pyrazol-4-yl)pyrimidin-2-yl)amino)benzenesulfonamide] |  |  | < 100 nM | ≤ 10 nM |
| CC(C)(O)Cn1cc(-c2nc(Nc3ccc(S(N)(=O)=O)cc3)ncc2C(F)(F)F)cn1 [Example 5, 4-((4-(1-(2-hydroxy-2-methylpropyl)-1H-pyrazol-4-yl)-5-(trifluoromethyl)pyrimidin-2-yl)amino)benzenesulfonamide] |  |  | < 100 nM | ≤ 10 nM |
| CC(C)(O)Cn1cc(-c2nc(Nc3ccc(S(N)(=O)=O)cc3)ncc2C#N)cn1 [Example 8, 4-((5-cyano-4-(1-(2-hydroxy-2-methylpropyl)-1H-pyrazol-4-yl)pyrimidin-2-yl)amino)benzenesulfonamide] |  |  | < 100 nM | ≤ 10 nM |
| CC(C)(O)Cn1cc(-c2nc(Nc3ccc(S(N)(=O)=O)cc3F)ncc2C(F)F)cn1 [Example 11, 4-((5-(difluoromethyl)-4-(1-(2-hydroxy-2-methylpropyl)-1H-pyrazol-4-yl)pyrimidin-2-yl)amino)-3-fluorobenzenesulfonamide] |  |  | 100 to 500 nM | ≤ 10 nM |
| Cc1cc(S(N)(=O)=O)ccc1Nc1ncc(Cl)c(-c2cnn(CC(C)(C)O)c2)n1 [Example 14] |  |  | < 100 nM | ≤ 10 nM |
| NS(=O)(=O)c1ccc(Nc2ncc(C(F)(F)F)c(-c3cnn(C4(CO)CC4)c3)n2)c(F)c1 [Example 16, 3-fluoro-4-((4-(1-(1-(hydroxymethyl)cyclopropyl)-1H-pyrazol-4-yl)-5-(trifluoromethyl)pyrimidin-2-yl)amino)benzenesulfonamide] |  |  | 100 to 500 nM | ≤ 10 nM |
| Cc1cnc(Nc2ccc(S(N)(=O)=O)cc2)nc1-c1cnn(CC(C)(C)O)c1 [Example 17, 4-((4-(1-(2-hydroxy-2-methylpropyl)-1H-pyrazol-4-yl)-5-methylpyrimidin-2-yl)amino)benzenesulfonamide] |  |  | 100 to 500 nM | ≤ 10 nM |
| CC(C)(O)Cn1cc(-c2nc(Nc3ccc(S(N)(=O)=O)cc3)ncc2F)cn1 [Example 18, 4-((5-fluoro-4-(1-(2-hydroxy-2-methylpropyl)-1H-pyrazol-4-yl)pyrimidin-2-yl)amino)benzenesulfonamide] |  |  | < 100 nM | ≤ 10 nM |
| CC(C)(O)Cn1cc(-c2nc(Nc3ccc(S(N)(=O)=O)cc3F)ncc2C#N)cn1 [Example 19, 4-((5-cyano-4-(1-(2-hydroxy-2-methylpropyl)-1H-pyrazol-4-yl)pyrimidin-2-yl)amino)-3-fluorobenzenesulfonamide] |  |  | 100 to 500 nM | ≤ 10 nM |
| C[C@@H](O)Cn1cc(-c2nc(Nc3ccc(S(N)(=O)=O)cc3F)ncc2C(F)(F)F)cn1 [Example 20, (R)-3-fluoro-4-((4-(1-(2-hydroxypropyl)-1H-pyrazol-4-yl)-5-(trifluoromethyl)pyrimidin-2-yl)amino)benzenesulfonamide] |  |  | 100 to 500 nM | ≤ 10 nM |
| Cc1c(S(N)(=O)=O)ccc(Nc2ncc(C(F)(F)F)c(-c3cnn(CC(C)(C)O)c3)n2)c1F [Example 21, 3-fluoro-4-((4-(1-(2-hydroxy-2-methylpropyl)-1H-pyrazol-4-yl)-5-(trifluoromethyl)pyrimidin-2-yl)amino)-2-methylbenzenesulfonamide] |  |  | 100 to 500 nM | ≤ 10 nM |
| CC(C)(CO)n1cc(-c2nc(Nc3ccc(S(N)(=O)=O)cc3F)ncc2C(F)(F)F)cn1 [Example 22, 3-fluoro-4-((4-(1-(1-hydroxy-2-methylpropan-2-yl)-1H-pyrazol-4-yl)-5-(trifluoromethyl)pyrimidin-2-yl)amino)benzenesulfonamide] |  |  | 100 to 500 nM | ≤ 10 nM |
| CC(C)(O)Cn1cc(-c2nc(Nc3ccc(S(N)(=O)=O)cc3Cl)ncc2Cl)cn1 [Example 23, 3-chloro-4-((5-chloro-4-(1-(2-hydroxy-2-methylpropyl)-1H-pyrazol-4-yl)pyrimidin-2-yl)amino)benzenesulfonamide] |  |  | 100 to 500 nM | ≤ 10 nM |
| CCc1cnc(Nc2ccc(S(N)(=O)=O)cc2)nc1-c1cnn(CC(C)(C)O)c1 [Example 24, 4-((5-ethyl-4-(1-(2-hydroxy-2-methylpropyl)-1H-pyrazol-4-yl)pyrimidin-2-yl)amino)benzenesulfonamide] |  |  | 100 to 500 nM | ≤ 10 nM |
| COc1cc(S(N)(=O)=O)ccc1Nc1ncc(C(F)(F)F)c(-c2cnn(CC(C)(C)O)c2)n1 [Example 27, 4-((4-(1-(2-hydroxy-2-methylpropyl)-1H-pyrazol-4-yl)-5-(trifluoromethyl)pyrimidin-2-yl)amino)-3-methoxybenzenesulfonamide] |  |  | 100 to 500 nM | ≤ 10 nM |
| COc1cc(S(N)(=O)=O)ccc1Nc1ncc(Cl)c(-c2cnn(CC(C)(C)O)c2)n1 [Example 28, 4-((5-chloro-4-(1-(2-hydroxy-2-methylpropyl)-1H-pyrazol-4-yl)pyrimidin-2-yl)amino)-3-methoxybenzenesulfonamide] |  |  | 100 to 500 nM | ≤ 10 nM |
| CC(C)(O)Cn1cc(-c2nc(Nc3ccc(S(N)(=O)=O)cc3F)ncc2F)cn1 [Example 30, 3-fluoro-4-((5-fluoro-4-(1-(2-hydroxy-2-methylpropyl)-1H-pyrazol-4-yl)pyrimidin-2-yl)amino)benzenesulfonamide] |  |  | 100 to 500 nM | ≤ 10 nM |
| Cc1cc(S(N)(=O)=O)ccc1Nc1ncc(F)c(-c2cnn(CC(C)(C)O)c2)n1 [Example 31, 4-((5-fluoro-4-(1-(2-hydroxy-2-methylpropyl)-1H-pyrazol-4-yl)pyrimidin-2-yl)amino)-3-methylbenzenesulfonamide] |  |  | 100 to 500 nM | ≤ 10 nM |

From patent US12668585B2, “Substituted pyrimidinyl-pyrazoles as CDK2 inhibitors” (BLUEPRINT MEDICINES CORPORATION, priority 2021, dated 2026)
